What is called EC50 is the concentration giving half of the maximal effect.

The target of assay [1] is T1, human Adenosine A1 receptor (Homo sapiens, UniProt P30542).
T1 construct: host or cells: CHO-K1
T1 sequence (P30542 1-326): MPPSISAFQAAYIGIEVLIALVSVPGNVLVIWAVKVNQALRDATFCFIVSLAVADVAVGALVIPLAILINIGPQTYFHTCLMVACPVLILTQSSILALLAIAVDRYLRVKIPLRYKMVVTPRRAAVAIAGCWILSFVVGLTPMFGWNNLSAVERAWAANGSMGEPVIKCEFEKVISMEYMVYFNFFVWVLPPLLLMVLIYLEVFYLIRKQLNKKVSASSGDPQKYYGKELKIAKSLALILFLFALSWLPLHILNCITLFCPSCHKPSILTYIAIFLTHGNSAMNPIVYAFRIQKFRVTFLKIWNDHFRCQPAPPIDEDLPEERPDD
Put plainly: GTPγS scintillation proximity assay, agonist testing. The format is biochemical. As to conditions: agonist activity; membrane extracts of CHO-K1 cells expressing recombinant human A1; read-out: A1AR EC50. In short, it runs like this: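 Agonist-stimulated [35S]GTPγS binding to membranes of CHO-K1 cells expressing recombinant human A1 receptor, in 20 mM HEPES pH 7.4, 100 mM NaCl, 10 μg/mL saponin, with receptor-optimized MgCl2 and GDP. GTPγ[35S] 0.1 nM final with WGA SPA beads; 1 h at room temperature, then scintillation counting.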

Assay [2] addresses T2, human A2B (Homo sapiens, UniProt P29275).
T2 construct: expressed in transfected cells; host or cells: HEK293
T2 sequence (P29275 1-332): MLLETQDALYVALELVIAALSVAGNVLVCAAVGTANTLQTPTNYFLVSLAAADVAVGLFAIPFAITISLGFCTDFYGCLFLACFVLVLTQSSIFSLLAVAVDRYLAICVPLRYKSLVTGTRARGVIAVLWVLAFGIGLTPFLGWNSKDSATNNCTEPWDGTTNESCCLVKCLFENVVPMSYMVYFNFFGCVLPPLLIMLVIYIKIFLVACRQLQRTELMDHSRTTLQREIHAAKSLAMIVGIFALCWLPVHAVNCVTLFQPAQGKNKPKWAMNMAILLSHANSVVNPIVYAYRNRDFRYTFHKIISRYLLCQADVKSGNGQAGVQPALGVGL
Put plainly: cAMP HTRF assay for Gs coupled receptor, agonist test. The assay is classed as cell-based. As to conditions: agonist activity; HEK293 cells expressing recombinant human A2B; read-out: A2BAR EC50. In short, it runs like this: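 Recombinant cells were incubated 30 min at room temperature with increasing agonist concentrations. Lysis buffer with cAMP-d2 and anti-cAMP cryptate was added, with 1 h at room temperature before the HTRF fluorescence ratio was read. Reference compounds were run in parallel.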

Some results are limits rather than exact numbers.

With `N#Cc1c(N)nc(SCc2ccncc2)c(C#N)c1-c1ccc(OCCO)cc1` [Compound 174], the EC50 in assay [1] came out at 8.1 nM; in assay [2], 0.5 nM.

Turning to `N#Cc1c(N)nc(SCc2cncnc2)c(C#N)c1-c1ccc(OCCO)cc1` [Compound 175], the EC50 in assay [1] came to 20 nM; in assay [2], 0.9 nM.

Consider `N#Cc1c(N)nc(SCc2ncccn2)c(C#N)c1-c1ccc(OCCO)cc1` [Compound 176], for which the figures for the EC50 in assay [1] and in assay [2] were 34 nM and 7.1 nM, respectively.

With `N#Cc1c(N)nc(SCCO)c(C#N)c1-c1ccc(OCCO)cc1` [Compound 177], the EC50 in assay [1] was 57 nM; in assay [2] it was 18 nM.

In the case of `N#Cc1c(N)nc(SCc2cccnn2)c(C#N)c1-c1ccc(OCCO)cc1` [Compound 178], the EC50 in assay [1] turned out to be 1.5 nM; in assay [2] it was 0.06 nM.

Regarding `N#Cc1c(N)nc(SCc2cccnc2)c(C#N)c1-c1ccc(OCCO)cc1` [Compound 183], the figures for the concentration giving a half-maximal response (EC50) in assay [1] and in assay [2] were 2 nM and 0.1 nM, respectively.

As to `COCCOc1ccc(-c2c(C#N)c(N)nc(CCc3cccnc3)c2C#N)cc1` [Compound 191], the EC50 in assay [1] is 567 nM; in assay [2], over 10000 nM.

Regarding `COCCOc1ccc(-c2c(C#N)c(N)nc(SCCO)c2C#N)cc1` [Compound 192], the EC50 in assay [1] was 25 nM; in assay [2], over 10000 nM.

`COCCOc1ccc(-c2c(C#N)c(N)nc(OCc3cccnc3)c2C#N)cc1` [Compound 193]: the EC50 is 49 nM in assay [1] and over 10000 nM in assay [2].

Consider `COCCOc1ccc(-c2c(C#N)c(N)nc(SCc3ccnnc3)c2C#N)cc1` [Compound 194], for which the EC50 in assay [1] was 71 nM; in assay [2] it was over 10000 nM.

For the molecule `COCCOc1ccc(-c2c(C#N)c(N)nc(SCc3cccnn3)c2C#N)cc1` [Compound 195], the figures for the EC50 in assay [1] and in assay [2] were 9.7 nM and over 10000 nM, respectively.

On to `COCCOc1ccc(-c2c(C#N)c(N)nc(SCc3ccncc3)c2C#N)cc1` [Compound 197], for which the EC50 is 52 nM in assay [1] and over 10000 nM in assay [2].

On to `COCCOc1ccc(-c2c(C#N)c(N)nc(SCc3cncnc3)c2C#N)cc1` [Compound 198], for which the EC50 in assay [1] was 80 nM; in assay [2], over 10000 nM.

In the case of `N#Cc1c(N)nc(SCc2c[nH]c3ccccc23)c(C#N)c1-c1ccc(OCCO)cc1` [Compound 206], the EC50 worked out at 981 nM in assay [1] and 495 nM in assay [2].

In the case of `N#Cc1c(N)nc(SCc2n[nH]c3ccccc23)c(C#N)c1-c1ccc(OCCO)cc1` [Compound 207], the values for the EC50 in assay [1] and in assay [2] were 739 nM and 108 nM, respectively.

As for `N#Cc1c(N)nc(SCc2nc3cc(Cl)ccc3s2)c(C#N)c1-c1ccc(OCCO)cc1` [Compound 208], the values for the EC50 in assay [1] and in assay [2] were 500 nM and 98 nM, respectively.

Take `COCCOc1ccc(-c2c(C#N)c(N)nc(SCc3cccc4c3CCO4)c2C#N)cc1` [Compound 212]: the EC50 in assay [1] was 7600 nM; in assay [2] it was over 10000 nM.

As for `COCCOc1ccc(-c2c(C#N)c(N)nc(SCc3ccc4ccoc4c3)c2C#N)cc1` [Compound 213], the EC50 in assay [1] and in assay [2] was over 10000 nM throughout.

Consider `COCCOc1ccc(-c2c(C#N)c(N)nc(SCc3cccc4[nH]ncc34)c2C#N)cc1` [Compound 214], for which the 50% effective concentration (EC50) in assay [1] and in assay [2] was over 10000 nM throughout.

In the case of `COCCOc1ccc(-c2c(C#N)c(N)nc(SCc3cccc4[nH]cnc34)c2C#N)cc1` [Compound 215], the EC50 in assay [1] and in assay [2] was over 10000 nM in each case.

`COCCOc1ccc(-c2c(C#N)c(N)nc(SCc3cncc4[nH]ccc34)c2C#N)cc1` [Compound 216]: the EC50 in assay [1] and in assay [2] was over 10000 nM in each case.

For the molecule `COCCOc1ccc(-c2c(C#N)c(N)nc(SCc3nccc4[nH]ccc34)c2C#N)cc1` [Compound 217], the EC50 in assay [1] and in assay [2] was over 10000 nM throughout.

On to `N#Cc1c(N)nc(SCC2CCOC2)c(C#N)c1-c1ccc(OC2CCOC2)cc1` (centres unmarked) [Compound 218], for which the EC50 in assay [1] is 353 nM; in assay [2], over 10000 nM.

Take `N#Cc1c(N)nc(SCC2COC2)c(C#N)c1-c1ccc(OC2CCOC2)cc1` (centres unmarked) [Compound 219]: the concentration giving a half-maximal response (EC50) is 154 nM in assay [1] and over 10000 nM in assay [2].

In the case of `N#Cc1c(N)nc(SCCC(F)(F)F)c(C#N)c1-c1ccc(OC2CCOC2)cc1` (centres unmarked) [Compound 220], the EC50 in assay [1] and in assay [2] was over 10000 nM in each case.

For the molecule `N#Cc1c(N)nc(SCc2cccc3[nH]ccc23)c(C#N)c1-c1ccc(OC2CCOC2)cc1` (centres unmarked) [Compound 221], the EC50 in assay [1] and in assay [2] was over 10000 nM each time.

On to `CN(C)c1nc(SCC2COC2)c(C#N)c(-c2ccc(OC3COC3)cc2)c1C#N` [Compound 222], for which the EC50 in assay [1] is 32 nM; in assay [2] it was over 10000 nM.

Take `N#Cc1c(N)nc(SCC2COC2)c(C#N)c1-c1ccc(OCCO)cc1` [Compound 223]: the values for the EC50 in assay [1] and in assay [2] were 1.5 nM and 401 nM, respectively.

For the molecule `N#Cc1c(N)nc(SC[C@H]2CCOC2)c(C#N)c1-c1ccc(OC2COC2)cc1` [Compound 225], the EC50 turned out to be 0.75 nM in assay [1] and 118 nM in assay [2].

In the case of `CC1(CSc2nc(N)c(C#N)c(-c3ccc(OC4COC4)cc3)c2C#N)COC1` [Compound 226], the EC50 in assay [1] is 22 nM; in assay [2], over 10000 nM.

For `N#Cc1c(N)nc(SCC2(F)COC2)c(C#N)c1-c1ccc(OC2COC2)cc1` [Compound 227], the EC50 in assay [1] was 326 nM; in assay [2] it was over 10000 nM.

With `N#Cc1c(N)nc(SC[C@@H]2CCOC2)c(C#N)c1-c1ccc(OC2COC2)cc1` [Compound 228], the EC50 in assay [1] was 1460 nM; in assay [2] it was 7550 nM.

In the case of `N#Cc1c(N)nc(SCc2nccc3[nH]ccc23)c(C#N)c1-c1ccc(OCCO)cc1` [Compound 229], the results for the half-maximal effective concentration (EC50) in assay [1] and in assay [2] were over 10000 nM and 11 nM, respectively.

Consider `CNc1nc(SCC2COC2)c(C#N)c(-c2ccc(OC3COC3)cc2)c1C#N` [Compound 230], for which the EC50 in assay [1] was 5.2 nM; in assay [2] it was over 10000 nM.

In the case of `COCCOc1ccc(-c2c(C#N)c(N)nc(SCc3ccncn3)c2C#N)cc1` [Compound 232], the EC50 in assay [1] is 1.51 nM; in assay [2] it was over 10000 nM.

As for `COCCOc1ccc(-c2c(C#N)c(SCc3cccnn3)nc(C3CC3)c2C#N)cc1` [Compound 233], the EC50 in assay [1] and in assay [2] was over 10000 nM throughout.

For the molecule `N#Cc1c(N)nc(SCc2cccnn2)c(C#N)c1-c1ccc(OC2COC2)cc1` [Compound 234], the concentration for a half-maximal effect (EC50) in assay [1] turned out to be 1.22 nM; in assay [2] it was 2.02 nM.

In the case of `N#Cc1c(N)nc(SCc2cnccn2)c(C#N)c1-c1ccc(OCCOC(F)F)cc1` [Compound 235], the EC50 in assay [1] amounted to 3280 nM; in assay [2] it was 1970 nM.

For the molecule `N#Cc1c(N)nc(SCc2cccnc2)c(C#N)c1-c1ccc(O[C@@H]2CCOC2)cc1` [Compound 236], the EC50 amounted to 164 nM in assay [1] and 49.3 nM in assay [2].

For `N#Cc1c(N)nc(SCc2cccnn2)c(C#N)c1-c1ccc(OCCOC(F)F)cc1` [Compound 237], the EC50 in assay [1] came out at 1.62 nM; in assay [2], 5360 nM.

Regarding `COCCOc1ccc(-c2c(C#N)c(SCc3cccnn3)nc(N3CC(F)C3)c2C#N)cc1` [Compound 238], the EC50 in assay [1] and in assay [2] was over 10000 nM throughout.

For the molecule `N#Cc1c(SCc2cccnn2)nc(C2CC2)c(C#N)c1-c1ccc(OCCOC(F)F)cc1` [Compound 239], the EC50 is 840 nM in assay [1] and over 10000 nM in assay [2].

In the case of `N#Cc1c(N)nc(SCc2cccnc2)c(C#N)c1-c1ccc(O[C@H]2CCOC2)cc1` [Compound 240], the EC50 in assay [1] was 0.903 nM; in assay [2], 0.335 nM.

For the molecule `N#Cc1c(SCc2cccnn2)nc(N2CC(F)C2)c(C#N)c1-c1ccc(OCCOC(F)F)cc1` [Compound 241], the EC50 in assay [1] was 73.2 nM; in assay [2], over 10000 nM.

For `N#Cc1c(SCc2cccnn2)nc(C2CC2)c(C#N)c1-c1ccc(OCCOC2COC2)cc1` [Compound 242], the EC50 in assay [1] turned out to be 905 nM; in assay [2], 749 nM.

Regarding `COCCOc1ccc(-c2c(C#N)c(N)nc(S[C@H](C)c3ccccn3)c2C#N)cc1` [Compound 243], the values for the 50% effective concentration (EC50) in assay [1] and in assay [2] were over 10000 nM and 6450 nM, respectively.

As to `COCCOc1ccc(-c2c(C#N)c(N)nc(S[C@@H](C)c3ccccn3)c2C#N)cc1` [Compound 244], the EC50 in assay [1] and in assay [2] was over 10000 nM each time.

Regarding `COCCOc1ccc(-c2c(C#N)c(Sc3cccnc3)nc(N3CC(F)C3)c2C#N)cc1` [Compound 245], the EC50 in assay [1] is 2.05 nM; in assay [2] it was over 10000 nM.

Consider `COCCOc1ccc(-c2c(C#N)c(N)nc(Sc3cccnc3)c2C#N)cc1` [Compound 246], for which the concentration for a half-maximal effect (EC50) in assay [1] and in assay [2] was over 10000 nM each time.

For the origin of these results see patent publication US20250170112A1, “ADENOSINE LIGANDS FOR THE TREATMENT OF NEUROLOGICAL DISORDERS” (Lucy Therapeutics, Inc., priority 2022, published 2025).
